Measurements taken from ChEMBL document CHEMBL1201862, “PubChem BioAssay data set” (2004).
Calls of active or inactive are those of the source.

Columns and labels:
[1] = target: Peroxisome proliferator-activated receptor gamma/Nuclear receptor coactivator 2 (Homo sapiens, UniProt P37231); type: functional;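 note: agonist potency for raising coactivator recruitment to the receptor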
[2] = target: Peroxisome proliferator-activated receptor gamma/Nuclear receptor coactivator 3 (Homo sapiens, UniProt P37231); type: functional;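 note: agonist potency for raising coactivator recruitment to the receptor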
[3] = target: T1, Corticotropin-releasing factor receptor 2/Corticotropin-releasing factor-binding protein (Homo sapiens, UniProt P24387+Q13324); assay: activators of CRF receptor 2 with binding protein – uHTS hits, confirmation (AID 602473); type: functional; settings: read-out: EC50_Mean
T1 sequence (Q13324 whole entry): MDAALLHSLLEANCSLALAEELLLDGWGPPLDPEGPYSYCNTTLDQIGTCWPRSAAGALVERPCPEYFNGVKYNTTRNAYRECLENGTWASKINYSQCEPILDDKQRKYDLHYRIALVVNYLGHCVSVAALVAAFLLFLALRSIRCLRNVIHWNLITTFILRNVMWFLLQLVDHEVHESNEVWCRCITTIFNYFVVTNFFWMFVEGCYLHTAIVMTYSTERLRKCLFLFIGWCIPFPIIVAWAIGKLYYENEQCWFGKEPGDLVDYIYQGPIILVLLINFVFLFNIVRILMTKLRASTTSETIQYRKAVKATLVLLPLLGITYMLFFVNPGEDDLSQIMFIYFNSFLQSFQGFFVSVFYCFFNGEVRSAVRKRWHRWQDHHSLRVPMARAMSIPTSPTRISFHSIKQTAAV
T1 sequence (P24387 whole entry): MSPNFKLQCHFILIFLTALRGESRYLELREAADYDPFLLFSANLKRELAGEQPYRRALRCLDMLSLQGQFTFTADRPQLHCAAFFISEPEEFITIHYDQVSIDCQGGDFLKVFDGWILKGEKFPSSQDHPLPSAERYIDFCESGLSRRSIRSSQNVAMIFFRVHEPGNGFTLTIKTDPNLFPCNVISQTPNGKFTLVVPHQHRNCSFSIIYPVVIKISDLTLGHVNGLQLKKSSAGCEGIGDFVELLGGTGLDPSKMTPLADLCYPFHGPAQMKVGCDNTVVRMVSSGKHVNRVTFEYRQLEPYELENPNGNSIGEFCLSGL

[4] = target: T1, Corticotropin-releasing factor receptor 2/Corticotropin-releasing factor-binding protein; assay: Dose Response confirmation of uHTS hits for small molecule antagonists of the CRF-binding protein and CRF-R2 receptor complex.; type: functional; settings: read-out: IC50_Mean
[5] = target: Peroxisome proliferator-activated receptor gamma/Nuclear receptor coactivator 1 (Homo sapiens, UniProt P37231); type: functional;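 note: agonist potency as compounds enhance coactivator SRC-1 recruitment to PPARgamma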
[6] = Artemis endonuclease inhibitor potency, dose response, biochemical, fluorescence intensity (AID 720701); type: functional;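 note: Artemis endonuclease enzyme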
[7] = target: T2, Low molecular weight phosphotyrosine protein phosphatase (Homo sapiens, UniProt P24666); type: functional; settings: read-out: IC50_Mean;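 note: Dose-response confirmation assay measuring inhibition of LMPTP enzyme activity by fluorescence intensity read-out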
T2 sequence (P24666 whole entry): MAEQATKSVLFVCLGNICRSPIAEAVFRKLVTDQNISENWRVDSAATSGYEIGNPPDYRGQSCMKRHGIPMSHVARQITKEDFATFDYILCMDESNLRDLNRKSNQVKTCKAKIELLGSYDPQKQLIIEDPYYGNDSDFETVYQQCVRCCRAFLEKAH

[8] = target: Luciferin 4-monooxygenase (Photinus pyralis, UniProt P08659); assay: Counter Screen for Luciferase-based Assay Positives. [Related pubchem assays: 620, 618, 411 ]
[9] = inhibitors of firefly luciferase expression or activity, dose response, H4 neuroglioma cells, luminescence (AID 1990); type: functional, cell-based
[10] = Luminescence Cell-Based Dose Response HTS to Identify Inhibitors of 5'UTR Stem-Loop Driven Prion Protein mRNA Translation in H4 Neuroglioblastoma Cells. [Related pubchem assays: 1827 (Project Summary), 1813 (Primary HTS)]; type: functional
[11] = tested on: HEK293; assay: inhibitors of LMP1-driven NF-kB reporter, dose response, cell-based, HEK293, luciferase, cherry-pick (AID 588343); type: functional; settings: Homo sapiens
[12] = tested on: HT-1080; assay: cytotoxicity in HT1080 fibrosarcoma cells, cell-based, fluorescence readout (AID 620); type: functional; settings: Homo sapiens
[13] = inhibitors of SNCA 5'UTR-driven reporter translation, confirmation, H4 neuroglioma cells, luminescence (AID 1988); type: functional, cell-based
[14] = target: T3, Ubiquitin-conjugating enzyme E2 N (Homo sapiens, UniProt P61088); type: functional;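 note: Dose-response confirmation in a TR-FRET assay detecting UBC13-driven polyubiquitin chain formation, inhibition measured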
T3 sequence (P61088 whole entry): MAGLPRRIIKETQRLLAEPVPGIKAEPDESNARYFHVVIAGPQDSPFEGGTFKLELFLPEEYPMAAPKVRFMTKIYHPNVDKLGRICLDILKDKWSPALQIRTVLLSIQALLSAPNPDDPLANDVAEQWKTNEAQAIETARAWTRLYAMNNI

[15] = THP-1 cell cytotoxicity, dose response, cytotoxicity control for Vif-APOBEC3G degradation inhibitor project, THP-1 cells (AID 1117359); type: functional; settings: Human immunodeficiency virus 1, THP-1
[16] = target: 5-hydroxytryptamine receptor 2A (Mus musculus, UniProt P35363); type: functional, cell-based;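 note: CHO-K1 cells with tagged receptor and beta-arrestin; agonist potency measured as compound-induced activation of the receptor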
[17] = target: Mu-type opioid receptor (Homo sapiens, UniProt P35372); type: functional, cell-based;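 note: U2OS cells with beta-arrestin recruitment to OPRM1 by beta-gal complementation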
[18] = target: T4, Protein skinhead-1 (Caenorhabditis elegans, UniProt P34707); type: functional
T4 sequence (P34707 whole entry): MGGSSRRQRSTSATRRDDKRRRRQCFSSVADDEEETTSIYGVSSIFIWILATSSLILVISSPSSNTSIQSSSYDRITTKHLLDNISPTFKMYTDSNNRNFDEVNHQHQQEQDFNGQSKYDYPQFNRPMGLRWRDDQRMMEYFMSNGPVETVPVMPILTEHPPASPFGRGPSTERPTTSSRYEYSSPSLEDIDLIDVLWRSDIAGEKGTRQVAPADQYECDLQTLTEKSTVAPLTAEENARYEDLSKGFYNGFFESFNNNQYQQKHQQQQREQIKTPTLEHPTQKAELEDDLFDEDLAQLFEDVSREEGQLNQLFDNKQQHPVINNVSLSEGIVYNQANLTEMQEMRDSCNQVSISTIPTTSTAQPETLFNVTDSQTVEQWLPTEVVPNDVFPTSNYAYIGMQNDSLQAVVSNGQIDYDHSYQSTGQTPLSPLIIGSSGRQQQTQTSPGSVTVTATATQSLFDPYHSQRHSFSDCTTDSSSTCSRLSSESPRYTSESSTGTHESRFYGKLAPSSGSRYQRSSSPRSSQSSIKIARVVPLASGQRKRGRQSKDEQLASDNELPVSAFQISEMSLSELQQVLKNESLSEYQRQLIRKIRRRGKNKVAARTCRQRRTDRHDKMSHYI

[19] = HEp-2 cell cytotoxicity, dose response, cytotoxicity control for RSV inhibitor project, HTS (AID 2410); type: functional; settings: human respiratory syncytial virus
[20] = tested on: H4; assay: Luminescence Cell-Based Dose Response HTS to Identify Activators of 5'UTR Stem-Loop Driven Prion Protein mRNA Translation in H4 Neuroglioblastoma Cells. [Related pubchem assays: 1829 (Project Summary), 1814 (Primary HTS)]; type: functional; settings: Homo sapiens
[21] = tested on: Vero; assay: cells; type: functional, cell-based; settings: Chlorocebus sabaeus
[22] = Luminescence Cell-Based Dose Response HTS to Identify Activators of Luciferase Translation or Activity in H4 […] Cells. [Related pubchem assays: 1829 (Project Summary), 1814 (Primary HTS)]; type: functional
[23] = cells
[24] = tested on: Vero; assay: cells; type: functional; settings: Chlorocebus sabaeus
[25] = target: Eukaryotic translation initiation factor 4E (Mus musculus, UniProt P63073); assay: eIF4E–eIF4G protein interaction inhibitors, dose response, biochemical, TR-FRET (AID 855); type: functional;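 note: potency for disrupting eIF4E binding to eIF4GI seen as loss of FRET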
[26] = target: Induced myeloid leukemia cell differentiation protein Mcl-1 (Homo sapiens, UniProt Q07820); type: functional
[27] = cytotoxicity in KRAS-transformed pancreatic duct cells, primary screen, cell-based, fluorescence, HTS (AID 431); type: functional; settings: Homo sapiens;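 note: cell line used: HPDE-C7K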
[28] = cytotoxicity in HPDE-C7 cells, cell-based, fluorescence, HTS (AID 430); type: functional; settings: Homo sapiens
[29] = tested on: Streptococcus; assay: Group A Streptococcus viability loss, dose response, counter-screen for streptokinase expression inhibitor project, luminescence, BacTiterGlo (AID 1915); type: functional, organism-based;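 note: potency for reduction of bacterial viability or growth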
[30] = growth suppression of PTEN-null colon cells, dose response, cell-based, HCT116 PTEN knockout (AID 1047); type: functional;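 note: HCT116 colon tumor cells with PTEN knocked out; cells exposed to compound for 60 hours before readout; potency for loss of cell viability measured by luminescence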
[31] = growth suppression of beta-catenin-knockout colon cells, dose response, cell-based, HCT116, human colon tumor (AID 1045); type: functional;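 note: HCT116 colon tumor cells with beta catenin knocked out; cells exposed to compound for 60 hours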
[32] = tested on: Streptococcus sp. 'group A'; assay: growth inhibition of control SK(-) GAS strain, dose response, counter-screen for streptokinase expression inhibitor project, luminescence, kanamycin, BacTiterGlo, confirmation (AID 1900); type: functional, organism-based
[33] = target: T5, Cysteine protease ATG4B (Homo sapiens, UniProt Q9Y4P1); type: functional;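 note: Fluorescence-based dose-response confirmation assay measuring inhibition of ATG4B activity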
T5 sequence (Q9Y4P1 whole entry): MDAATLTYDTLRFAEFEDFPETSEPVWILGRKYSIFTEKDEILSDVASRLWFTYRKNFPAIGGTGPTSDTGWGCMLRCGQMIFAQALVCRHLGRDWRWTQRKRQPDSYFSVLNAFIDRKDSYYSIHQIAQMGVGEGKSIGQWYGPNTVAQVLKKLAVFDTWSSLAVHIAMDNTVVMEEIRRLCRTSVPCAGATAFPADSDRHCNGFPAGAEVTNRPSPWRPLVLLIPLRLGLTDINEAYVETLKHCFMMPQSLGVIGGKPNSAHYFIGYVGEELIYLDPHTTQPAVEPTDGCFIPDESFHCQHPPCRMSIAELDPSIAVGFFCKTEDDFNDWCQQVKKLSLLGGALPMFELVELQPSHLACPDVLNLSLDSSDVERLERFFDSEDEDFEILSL

[34] = target: Phospholipase A2 (Homo sapiens, UniProt P04054); type: functional;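 note: confirmatory dose-response counterscreen on phospholipase A2, testing hits that came from an ultra-high-throughput screen for ATG4B inhibitors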
[35] = target: Heat shock protein HSP 90-alpha (Homo sapiens, UniProt P07900); type: functional, organism-based
[36] = microbe, parasite or virus in culture; type: functional; settings: Mycobacterium tuberculosis
[37] = target: T6, Calpain-2 catalytic subunit (Sus scrofa, UniProt P43367); assay: pig calpain II inhibitor potency, dose response, biochemical, fluorogenic peptide substrate (AID 1420); type: functional
T6 sequence (P43367 whole entry): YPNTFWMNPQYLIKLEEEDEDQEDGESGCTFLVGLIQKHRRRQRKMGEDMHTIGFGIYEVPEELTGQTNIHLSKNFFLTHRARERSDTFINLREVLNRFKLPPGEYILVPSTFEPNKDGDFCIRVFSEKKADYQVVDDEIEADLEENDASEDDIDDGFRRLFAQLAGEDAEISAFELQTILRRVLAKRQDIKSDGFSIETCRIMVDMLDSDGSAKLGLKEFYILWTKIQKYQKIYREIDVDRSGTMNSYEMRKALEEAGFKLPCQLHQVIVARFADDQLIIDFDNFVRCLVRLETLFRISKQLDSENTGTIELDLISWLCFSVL

Sequence of Peroxisome proliferator-activated receptor gamma/Nuclear receptor coactivator 1 (P37231 whole entry): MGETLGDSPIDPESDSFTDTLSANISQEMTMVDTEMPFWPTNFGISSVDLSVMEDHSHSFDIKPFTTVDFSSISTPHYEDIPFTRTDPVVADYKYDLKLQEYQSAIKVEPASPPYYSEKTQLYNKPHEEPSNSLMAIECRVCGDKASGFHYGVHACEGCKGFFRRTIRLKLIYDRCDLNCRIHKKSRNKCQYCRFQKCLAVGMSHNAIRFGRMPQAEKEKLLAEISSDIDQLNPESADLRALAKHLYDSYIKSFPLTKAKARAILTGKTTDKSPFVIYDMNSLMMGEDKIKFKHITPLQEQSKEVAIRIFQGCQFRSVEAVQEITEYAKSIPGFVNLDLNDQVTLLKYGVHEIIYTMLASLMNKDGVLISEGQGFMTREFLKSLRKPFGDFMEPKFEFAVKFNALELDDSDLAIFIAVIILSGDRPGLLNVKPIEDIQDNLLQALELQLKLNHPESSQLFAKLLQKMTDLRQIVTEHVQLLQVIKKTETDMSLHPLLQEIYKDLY
Sequence of Peroxisome proliferator-activated receptor gamma/Nuclear receptor coactivator 1 (Q15788 whole entry, further chain): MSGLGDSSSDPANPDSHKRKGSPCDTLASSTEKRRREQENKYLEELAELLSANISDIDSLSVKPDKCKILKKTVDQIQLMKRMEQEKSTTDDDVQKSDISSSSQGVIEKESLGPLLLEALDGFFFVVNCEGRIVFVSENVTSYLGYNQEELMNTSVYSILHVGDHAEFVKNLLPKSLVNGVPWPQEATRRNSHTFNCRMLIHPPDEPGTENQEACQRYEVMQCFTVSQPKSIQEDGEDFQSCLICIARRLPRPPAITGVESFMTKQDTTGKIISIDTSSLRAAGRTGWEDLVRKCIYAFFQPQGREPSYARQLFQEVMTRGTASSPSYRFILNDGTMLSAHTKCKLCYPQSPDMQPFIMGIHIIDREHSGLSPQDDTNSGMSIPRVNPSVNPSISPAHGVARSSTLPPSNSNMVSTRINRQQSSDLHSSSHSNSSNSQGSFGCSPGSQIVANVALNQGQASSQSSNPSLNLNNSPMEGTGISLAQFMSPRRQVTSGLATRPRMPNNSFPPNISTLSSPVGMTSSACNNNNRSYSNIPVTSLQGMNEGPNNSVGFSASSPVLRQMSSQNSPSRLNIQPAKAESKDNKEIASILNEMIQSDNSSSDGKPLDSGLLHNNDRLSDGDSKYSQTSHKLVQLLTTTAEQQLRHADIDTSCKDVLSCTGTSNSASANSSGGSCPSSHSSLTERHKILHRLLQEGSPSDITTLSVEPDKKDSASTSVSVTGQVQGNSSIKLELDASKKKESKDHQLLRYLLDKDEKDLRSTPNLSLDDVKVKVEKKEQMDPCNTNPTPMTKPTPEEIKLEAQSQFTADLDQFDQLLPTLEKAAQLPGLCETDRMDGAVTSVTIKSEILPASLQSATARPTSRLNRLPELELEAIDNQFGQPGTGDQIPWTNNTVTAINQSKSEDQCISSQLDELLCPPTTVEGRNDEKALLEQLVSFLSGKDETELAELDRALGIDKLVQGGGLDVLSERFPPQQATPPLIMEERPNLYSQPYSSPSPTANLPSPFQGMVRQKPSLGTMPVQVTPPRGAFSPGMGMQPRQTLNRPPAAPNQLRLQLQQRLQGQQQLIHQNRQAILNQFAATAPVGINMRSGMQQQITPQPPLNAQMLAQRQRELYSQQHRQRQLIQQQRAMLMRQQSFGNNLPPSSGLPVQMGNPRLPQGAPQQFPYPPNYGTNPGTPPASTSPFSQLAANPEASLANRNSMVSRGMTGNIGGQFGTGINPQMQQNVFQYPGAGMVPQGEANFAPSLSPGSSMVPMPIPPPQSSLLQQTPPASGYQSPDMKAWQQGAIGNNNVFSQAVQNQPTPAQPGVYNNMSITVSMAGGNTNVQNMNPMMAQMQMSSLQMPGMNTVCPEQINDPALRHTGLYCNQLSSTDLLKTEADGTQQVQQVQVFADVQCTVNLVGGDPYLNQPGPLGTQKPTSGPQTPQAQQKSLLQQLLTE
Sequence of Peroxisome proliferator-activated receptor gamma/Nuclear receptor coactivator 2 (P37231 whole entry): as the sequence (P37231 whole entry) above
Sequence of Peroxisome proliferator-activated receptor gamma/Nuclear receptor coactivator 2 (Q15596 whole entry, further chain): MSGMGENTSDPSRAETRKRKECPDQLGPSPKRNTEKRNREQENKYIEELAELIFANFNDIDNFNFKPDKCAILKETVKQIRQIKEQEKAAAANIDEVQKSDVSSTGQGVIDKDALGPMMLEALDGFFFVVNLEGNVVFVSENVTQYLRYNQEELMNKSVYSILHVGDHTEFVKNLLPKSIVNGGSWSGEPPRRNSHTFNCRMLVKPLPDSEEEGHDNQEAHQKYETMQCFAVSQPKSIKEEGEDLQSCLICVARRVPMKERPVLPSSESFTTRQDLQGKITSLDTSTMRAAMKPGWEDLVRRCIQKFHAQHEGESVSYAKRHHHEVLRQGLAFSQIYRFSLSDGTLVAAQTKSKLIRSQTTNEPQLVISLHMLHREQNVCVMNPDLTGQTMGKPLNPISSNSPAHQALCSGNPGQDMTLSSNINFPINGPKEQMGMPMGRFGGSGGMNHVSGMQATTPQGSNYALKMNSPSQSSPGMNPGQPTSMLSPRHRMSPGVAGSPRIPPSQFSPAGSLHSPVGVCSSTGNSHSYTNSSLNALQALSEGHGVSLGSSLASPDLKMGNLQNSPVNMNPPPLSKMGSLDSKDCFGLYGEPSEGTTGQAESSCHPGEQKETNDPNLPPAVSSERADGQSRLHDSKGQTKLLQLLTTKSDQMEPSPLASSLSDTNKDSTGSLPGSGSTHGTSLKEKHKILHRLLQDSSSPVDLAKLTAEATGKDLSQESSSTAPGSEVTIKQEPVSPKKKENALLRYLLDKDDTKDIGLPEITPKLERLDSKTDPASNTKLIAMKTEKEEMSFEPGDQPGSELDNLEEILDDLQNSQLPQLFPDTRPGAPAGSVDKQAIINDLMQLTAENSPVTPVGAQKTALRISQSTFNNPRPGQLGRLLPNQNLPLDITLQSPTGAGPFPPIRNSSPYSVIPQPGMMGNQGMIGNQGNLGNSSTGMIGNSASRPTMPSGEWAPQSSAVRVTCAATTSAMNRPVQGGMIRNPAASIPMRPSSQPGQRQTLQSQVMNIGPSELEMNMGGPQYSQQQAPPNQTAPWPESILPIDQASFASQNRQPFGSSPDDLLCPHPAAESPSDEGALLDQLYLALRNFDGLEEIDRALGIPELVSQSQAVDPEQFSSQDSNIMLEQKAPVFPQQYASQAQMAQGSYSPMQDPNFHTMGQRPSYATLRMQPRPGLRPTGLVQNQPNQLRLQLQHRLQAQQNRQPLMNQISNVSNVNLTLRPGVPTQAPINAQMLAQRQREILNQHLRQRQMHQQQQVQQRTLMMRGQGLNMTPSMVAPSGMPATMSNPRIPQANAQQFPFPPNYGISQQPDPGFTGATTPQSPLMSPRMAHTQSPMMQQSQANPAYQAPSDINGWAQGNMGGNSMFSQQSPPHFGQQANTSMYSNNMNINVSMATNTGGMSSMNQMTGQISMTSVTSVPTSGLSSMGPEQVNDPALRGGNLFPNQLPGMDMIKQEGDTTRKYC
Sequence of Luciferin 4-monooxygenase (P08659 whole entry): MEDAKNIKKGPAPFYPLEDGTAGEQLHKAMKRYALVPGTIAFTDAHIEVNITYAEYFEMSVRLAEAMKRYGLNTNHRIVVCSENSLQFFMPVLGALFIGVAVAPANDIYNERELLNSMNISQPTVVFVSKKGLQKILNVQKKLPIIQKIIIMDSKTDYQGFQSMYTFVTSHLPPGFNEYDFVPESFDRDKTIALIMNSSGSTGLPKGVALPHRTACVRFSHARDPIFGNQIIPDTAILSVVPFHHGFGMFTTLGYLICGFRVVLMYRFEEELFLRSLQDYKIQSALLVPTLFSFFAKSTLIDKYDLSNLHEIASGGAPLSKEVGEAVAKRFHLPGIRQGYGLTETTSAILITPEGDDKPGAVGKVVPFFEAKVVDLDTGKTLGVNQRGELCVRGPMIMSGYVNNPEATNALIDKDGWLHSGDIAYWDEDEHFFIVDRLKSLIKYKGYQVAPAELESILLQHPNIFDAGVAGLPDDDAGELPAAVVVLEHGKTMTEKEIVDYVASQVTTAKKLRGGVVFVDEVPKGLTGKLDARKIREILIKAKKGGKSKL
Sequence of Eukaryotic translation initiation factor 4E (P63073 whole entry): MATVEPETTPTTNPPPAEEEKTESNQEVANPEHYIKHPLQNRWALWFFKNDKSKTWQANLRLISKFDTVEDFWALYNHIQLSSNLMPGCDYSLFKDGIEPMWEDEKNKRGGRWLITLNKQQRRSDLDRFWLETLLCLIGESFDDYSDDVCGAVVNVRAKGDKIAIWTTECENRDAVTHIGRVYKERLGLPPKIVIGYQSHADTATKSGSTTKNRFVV
Sequence of Phospholipase A2 (P04054 whole entry): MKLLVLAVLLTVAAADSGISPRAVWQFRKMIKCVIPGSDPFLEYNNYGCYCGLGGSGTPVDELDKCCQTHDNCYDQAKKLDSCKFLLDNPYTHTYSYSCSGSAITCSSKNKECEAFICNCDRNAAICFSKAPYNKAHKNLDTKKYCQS

COc1ccc(NS(=O)(=O)c2c(C)n(C)c(=O)n(C)c2=O)cc1OC
EC50 [1]: > 79.4 µM (not active)
EC50 [2]: > 79.4 µM (not active)
EC50 [3]: > 53 µM (inactive)
IC50 [4]: > 47.1 µM (inactive)
EC50 [5]: > 79.4 µM (not active)

Oc1cc(-c2ccccc2)nc2nc(-c3ccco3)nn12
IC50 [6]: > 20 µM (inactive)
IC50 [7]: 80 µM (inactive)

COc1ccc(C(=O)Nn2c(SCC(=O)NCc3ccco3)nc3ccccc3c2=O)cc1
EC50 [8]: 440 nM (active)
EC50 [9]: 8.65 µM (inconclusive)
EC50 [10]: 8.39 µM (active)
AC50 [11]: 2.48 µM (active)
EC50 [12]: > 50 µM (not active)
EC50 [13]: 8.3 µM (active)
IC50 [14]: > 20 µM (inactive)

Oc1cc2c(cc1O)[C@@H](c1ccccc1)CNCC2
CC50 [15]: > 40 µM (active)
EC50 [16]: 28.2 µM (inactive)
EC50 [17]: 92.7 µM (inactive)

CSC1=NC(C)(C)CC2(CC(c3ccccc3)Oc3cc(O)ccc32)N1 (configuration not stated)
EC50 [1]: > 79.4 µM (not active)
EC50 [2]: > 79.4 µM (not active)
IC50 [18]: > 100 µM (inactive)
EC50 [5]: > 79.4 µM (not active)

CCN(CC)C(=O)N1c2ccccc2C=Cc2ccccc21
CC50 [19]: 9.46 µM (active)
EC50 [20]: > 120 µM (not active)
IC50 [21]: 4.41 µM (active)
EC50 [22]: 30 µM (active)
IC50 [23]: 2.02 µM (active)
CC50 [24]: > 25 µM (active)

CCOC(=O)c1ccc(NC(=S)N2CCSC2c2ccc(Br)cc2)cc1 (configuration not stated)
CC50 [19]: 14 µM (active)
EC50 [3]: 4.38 µM (active)
IC50 [23]: 11 µM (active)

O=[N+]([O-])c1cc(CN2CCOCC2)c2cccnc2c1O
IC50 [25]: 50 µM (inactive)
CC50 [15]: > 40 µM (active)
IC50 [26]: 2.93 µM (active)

CN(Cc1cc2ccccc2nc1O)S(C)(=O)=O
EC50 [27]: > 20 µM (not active)
EC50 [28]: > 20 µM (not active)

COc1ccc(Br)cc1C(=O)N/N=C/c1ccc([N+](=O)[O-])cc1
EC50 [1]: > 79.4 µM (not active)
EC50 [2]: > 79.4 µM (not active)
EC50 [5]: > 79.4 µM (not active)

O=[N+]([O-])c1ccc(/C=N/Nc2nc(-c3ccccc3)c3cc(Br)ccc3n2)o1
CC50 [19]: > 50 µM (active)
IC50 [6]: 6.57 µM (active)
EC50 [29]: 934 nM (active)
EC50 [30]: 26.1 µM (active)
EC50 [31]: 29.7 µM (active)
EC50 [32]: 703 nM (active)
IC50 [7]: 80 µM (inactive)

c1ccc(-c2ccc(C(c3ccccc3)n3ccnc3)cc2)cc1 (configuration not stated) [BIFONAZOLE]
IC50 [33]: 8.5 µM (active)
EC50 [27]: 17.8 µM (active)
IC50 [34]: 8.89 µM (active)
AC50 [35]: 1.06 µM (active)
CC50 [36]: > 40 µM (active)
IC50 [37]: 14.7 µM (not active)
EC50 [28]: > 20 µM (not active)
